Experimental data from patent US20180071317A1, “USE OF AGENTS THAT ALTER THE PERITUMORAL ENVIRONMENT FOR THE TREATMENT OF CANCER” (SERVICIO ANDALUZ DE SALUD, priority 2011, published 2018).

Legend:
[1] = tested on: co-cultures of tumor cells-immune/inflammatory cells (leukocytes); assay: Inhibition/survival in co-cultures of primary human tumor cells and leukocytes; assay type: cell-based; conditions: SP + antagonist
Experimental: To check that the interaction between the human primary tumor cells with human immune/inflammatory (polymorphonuclear and mononuclear leukocytes) cells, promotes the survival of both types of cells, cultures were carried out with sets of immune/inflammatory cells (mono and polymorphonuclear leukocytes) with tumor cells obtained directly from human primary tumors of patients.
The leukocytes were obtained from centrifugation of blood from the same patient. The leukocytes were cultured in fresh plasma from the same patient, in order to build a model similar to human physiology.

[2] = tested on: macrophages in co-culture with cells isolated from primary human tumors; assay: Marker expression (IHC) in macrophages co-cultured with primary human tumor cells (colon, breast, ovarian, lung carcinoma, melanoma); assay type: cell-based; conditions: SP + antagonist;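 note: macrophages came from pleural or peritoneal washings of the patient who also supplied the tumor cells, and both were co-cultured on fresh blood plasma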
Experimental: To check that the interaction of tumor cells obtained directly from primary human immune cell/inflammatory (macrophages) cells, obtained from the patient stimulate secretion of substances by these macrophages recognized as important in survival of both cell types and in the progression of tumor cells, co-cultures were performed on fresh blood plasma, immune cell/inflammatory (macrophages) with tumor cells derived from primary tumors. All obtained from the same patient, to build an experimental model similar to human physiology.
Macrophages were obtained from washing or pleural or peritoneal from the same patient from which the primary tumor cells were obtained in each case.

Compound | survival/proliferation in co-cultures of tumor cells-leukocytes (in words) [1] | expression of markers in macrophages co-cultured with primary tumor cells (in words) [2]
COc1ccccc1CN[C@H]1CCCN[C@H]1c1ccccc1 [CP-100263] | same results | same results
C#C[C@]1(O)CC[C@H]2[C@@H]3CC[C@H]4Cc5nc6nc7ccccc7n6cc5C[C@]4(C)[C@H]3CC[C@@]21C [WIN 51708] | same results | same results
COc1ccccc1CN[C@H]1C2CCN(CC2)[C@H]1C(c1ccccc1)c1ccccc1 [CP-96345] | same results | same results
C#C[C@]1(O)CC[C@H]2[C@@H]3CCC4=Cc5nc6nc7ccccc7n6cc5C[C@]4(C)[C@H]3CC[C@@]21C [WIN 62,577] | same results | same results
Ic1ccccc1CNC1C2CCN(CC2)C1C(c1ccccc1)c1ccccc1.O=C(O)C(=O)O [L-703,606, cis-2-(Diphenylmethyl)-N-[(2-iodophenyl)methyl]-1-azabicyclo [2.2.2]octan-3-amine oxalate salt] | same results | same results
CC(=O)N[C@@H](Cc1c[nH]c2ccccc12)C(=O)OCc1cc(C(F)(F)F)cc(C(F)(F)F)c1 [L-732,138, N-Acetyl-L-tryptophan 3,5-bis (trifluoromethyl)benzyl ester] | same results | same results
Cl.FC(F)(F)c1cc(CO[C@H]2CCCN[C@H]2c2ccccc2)cc(C(F)(F)F)c1 [L-733,060, (2S,3S)-3-[(3,5-bis (Trifluoromethyl)phenyl)methoxy]-2-phenylpiperidine hydrochloride] | same results | same results
C[C@@H](O[C@H]1OCCN(Cc2n[nH]nc2CN(C)C)[C@H]1c1ccc(F)cc1)c1cc(C(F)(F)F)cc(C(F)(F)F)c1.Cl [L-760735] | same results | same results
